From US20130165440A1, “JAK1 Inhibitors” (EXELIXIS, INC., priority 2010, published 2013)

Molecular target: T1, recombinant JAK1 enzyme (Homo sapiens, UniProt P23458)
T1 construct: 8 nM of recombinant JAK1 enzyme (Insect expressed: V866-K1155); host or cells: insect cells
Assay: JAK1 Kinase Assay (luciferase-luciferin-coupled chemiluminescence, ATP consumption)
Assay type: biochemical
Conditions: 8 nM JAK1 (V866-K1155), 30 μM IRS-1 peptide (Y608), 2 μM ATP, 2 hours ambient temperature, KinaseGlo; read-out: JAK1 IRS-1tide Chemilum (IC50)
Method: JAK1 Kinase Assay Used to Test Compounds
JAK1 Kinase activity was measured as the percent of ATP consumed following the kinase reaction using luciferase-luciferin-coupled chemiluminescence. The reaction was conducted in white medium binding 384-well microtiter plates. The kinase reaction were initiated by combining test compounds, 8 nM of recombinant JAK1 enzyme (Insect expressed: V866-K1155), 30 μM of IRS-1 peptide (Y608) and 2 μM ATP in buffer containing 20 mM Hepes (pH 7.5), 10 mM MgCl2, 0.01% Brij, 5% glycerol and 1 mM DTT in a 20 μL volume. The reaction mixture was incubated at ambient temperature for 2 hours. Following the kinase reaction, a 20 μL aliquot of KinaseGlo was added to stop the reaction and measure remaining ATP via detection of chemiluminescence using the Envison reader. Total ATP consumption was limited to 25-60%.

T1 sequence (P23458 865-1154 limits assumed): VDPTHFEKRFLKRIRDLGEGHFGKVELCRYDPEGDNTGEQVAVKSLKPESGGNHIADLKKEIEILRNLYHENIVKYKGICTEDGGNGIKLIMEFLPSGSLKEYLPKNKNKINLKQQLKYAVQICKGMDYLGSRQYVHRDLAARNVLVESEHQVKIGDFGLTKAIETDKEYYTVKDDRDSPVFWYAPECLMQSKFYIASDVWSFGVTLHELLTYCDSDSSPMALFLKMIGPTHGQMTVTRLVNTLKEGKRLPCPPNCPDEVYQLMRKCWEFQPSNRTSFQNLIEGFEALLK

`Nc1n[nH]c2cc(-c3nnc(Nc4cc(C(F)(F)F)cc(C(F)(F)F)c4)c4ccccc34)ccc12` [Compound 38, 4-(3-amino-1H-indazol-6-yl)-N-[3,5-bis(trifluoromethyl)phenyl]phthalazin-1-amine] and `Cc1n[nH]c2cc(-c3nnc(Nc4cc(C(F)(F)F)cc(C(F)(F)F)c4)c4ccccc34)ccc12` [Compound 56, N-[3,5-bis(trifluoromethyl)phenyl]-4-(3-methyl-1H-indazol-6-yl)phthalazin-1-amine] cannot be ordered by IC50: at most 150 nM for the first, 150 to 500 nM for the second.

First: COC(=O)c1ccc(-c2nnc(Nc3cccc(C(F)(F)F)c3)c3ncccc23)cc1 [Compound 39, methyl 4-(8-{[3-(trifluoromethyl)phenyl]amino}pyrido[2,3-d]pyridazin-5-yl)benzoate]
Second: COC(=O)c1ccc(-c2nnc(Nc3cccc(C(F)(F)F)c3)c3ccccc23)cc1 [Compound 58, methyl 4-(4-{[3-(trifluoromethyl)phenyl]amino}phthalazin-1-yl)benzoate]
The IC50 of the first is higher: 2000 to 30000 nM for the first, at most 150 nM for the second.

First: O=C(O)c1ccc(-c2nnc(Nc3cc(C(F)(F)F)cc(C(F)(F)F)c3)c3ccccc23)cc1 [Compound 40, 4-(4-{[3,5-bis(trifluoromethyl)phenyl]amino}phthalazin-1-yl)benzoic acid]
Second: CNC(=O)c1ccc(-c2nnc(Nc3cc(C(F)(F)F)cc(C(F)(F)F)c3)c3ccccc23)cc1 [Compound 55, 4-(4-{[3,5-bis(trifluoromethyl)phenyl]amino}phthalazin-1-yl)-N-methylbenzamide]
The IC50 of the first is higher: 2000 to 30000 nM for the first, 150 to 500 nM for the second. The second is the more potent here.

First: COC(=O)c1ccc(-c2nnc(Nc3cccc(OC(F)(F)F)c3)c3ccccc23)cc1 [Compound 43, methyl 4-[4-({3-[(trifluoromethyl)oxy]phenyl}amino)phthalazin-1-yl]benzoate]
Second: COC(=O)c1ccc(-c2nnc(Nc3cccc(C)c3)c3ccccc23)cc1 [Compound 47]
The IC50 of the first is lower: 150 to 500 nM for the first, 500 to 1000 nM for the second. The first is the more potent here.

`COC(=O)c1ccc(-c2nnc(Nc3cc(Br)cc(C(F)(F)F)c3)c3ccccc23)cc1` [Compound 44, methyl 4(4-{[3-bromo-5-(trifluoromethyl)phenyl]amino}phthalazin-1-yl)benzoate] and `COC(=O)c1ccc(-c2nnc(Nc3cc(C)cc(C(F)(F)F)c3)c3ccccc23)cc1` [Compound 65, methyl 4-(4-{[3-methyl-5-(trifluoromethyl)phenyl]amino}phthalazin-1-yl)benzoate] cannot be ordered by IC50: 150 to 500 nM for the first, at most 150 nM for the second.

First: FC(F)(F)c1cc(Nc2nnc(-c3ccc4nn[nH]c4c3)c3ccccc23)cc(C(F)(F)F)c1 [Compound 45, 4-(1H-1,2,3-benzotriazol-6-yl)-N-[3,5-bis(trifluoromethyl)phenyl]phthalazin-1-amine]
Second: CC(=O)c1cccc(-c2nnc(Nc3cc(C(F)(F)F)cc(C(F)(F)F)c3)c3ccccc23)c1 [Compound 50, 1-[3-(4-{[3,5-bis(trifluoromethyl)phenyl]amino}phthalazin-1-yl)phenyl]ethanone]
The IC50 of the first is lower: 1000 to 2000 nM for the first, 2000 to 30000 nM for the second. The first is the more potent here.

First: O=C1CCCN1c1ccc(-c2nnc(Nc3cc(C(F)(F)F)cc(C(F)(F)F)c3)c3ccccc23)cc1 [Compound 48, 1-[4-(4-{[3,5-bis(trifluoromethyl)phenyl]amino}phthalazin-1-yl)phenyl]pyrrolidin-2-one]
Second: COC(=O)c1ccc(-c2nnc(Nc3cc(C(F)(F)F)cc(C(F)(F)F)c3)c3ccccc23)cc1 [Compound 66, methyl 4-(4-{[3,5-bis(trifluoromethyl)phenyl]amino}phthalazin-1-yl)benzoate]
The IC50 of the first is higher: 2000 to 30000 nM for the first, 150 to 500 nM for the second.

Compared with `O=C(NCCN1CCOCC1)c1ccc(-c2nnc(Nc3cc(C(F)(F)F)cc(C(F)(F)F)c3)c3ccccc23)cc1` [Compound 49, 4-(4-{[3,5-bis(trifluoromethyl)phenyl]amino}phthalazin-1-yl)-N-(2-morpholin-4-ylethyl)benzamide], `FC(F)(F)c1cc(Nc2nnc(-c3ccc(-c4cc[nH]n4)cc3)c3ccccc23)cc(C(F)(F)F)c1` [Compound 52, N-[3,5-bis(trifluoromethyl)phenyl]-4-[4-(1H-pyrazol-3-yl)phenyl]phthalazin-1-amine] is lower in IC50: 500 to 1000 nM for the first, 150 to 500 nM for the second.

Compared with `COC(=O)c1ccc(-c2nnc(Nc3cccc(Br)c3)c3ccccc23)cc1` [Compound 51, methyl 4-{4-[(3-bromophenyl)amino]phthalazin-1-yl}benzoate], `COC(=O)c1ccc(-c2nnc(Nc3cccc(C#N)c3)c3ccccc23)cc1` [Compound 54, methyl 4-{4-[(3-cyanophenyl)amino]phthalazin-1-yl}benzoate] is higher in IC50: 150 to 500 nM for the first, 2000 to 30000 nM for the second.

First: COC(=O)c1ccc(-c2nnc(Nc3ccc(F)c(C(F)(F)F)c3)c3ccccc23)cc1 [Compound 53, methyl 4-(4-{[4-fluoro-3-(trifluoromethyl)phenyl]amino}phthalazin-1-yl)benzoate]
Second: COC(=O)c1ccc(-c2nnc(Nc3cccc(C(C)C)c3)c3ccccc23)cc1 [Compound 62, methyl 4-(4-{[3-(1-methylethyl)phenyl]amino}phthalazin-1-yl)benzoate]
The IC50 of the first is higher: 500 to 1000 nM for the first, 150 to 500 nM for the second.

Compared with `COC(=O)c1ccc(-c2nnc(Nc3cccc(C(C)C)c3)c3cnccc23)cc1` [Compound 57, methyl 4-(4-{[3-(1-methylethyl)phenyl]amino}pyrido[3,4-d]pyridazin-1-yl)benzoate], `COC(=O)c1ccc(-c2nnc(Nc3cccc(N(C)C)c3)c3ccccc23)cc1` [Compound 63, methyl 4-(4-{[3-(dimethylamino)phenyl]amino}phthalazin-1-yl)benzoate] is higher in IC50: 500 to 1000 nM for the first, 2000 to 30000 nM for the second. The first is the more potent here.

Compared with `COC(=O)c1ccc(-c2nnc(Nc3cc(C)cc(Br)c3)c3ccccc23)cc1` [Compound 59, methyl 4-{4-[(3-bromo-5-methylphenyl)amino]phthalazin-1-yl}benzoate], `COC(=O)c1ccc(-c2nnc(Nc3cc(CCN(C)C)cc(C(F)(F)F)c3)c3ccccc23)cc1` [Compound 60, methyl 4-[4-({3-[2-(dimethylamino)ethyl]-5-(trifluoromethyl)phenyl}amino)phthalazin-1-yl]benzoate] is higher in IC50: 150 to 500 nM for the first, 500 to 1000 nM for the second. The first is the more potent here.

`Cc1cc(-c2ccc(-c3nnc(Nc4cc(C(F)(F)F)cc(C(F)(F)F)c4)c4ccccc34)cc2)n[nH]1` [Compound 61, N-[3,5-bis(trifluoromethyl)phenyl]-4-[4-(5-methyl-1H-pyrazol-3-yl)phenyl]phthalazin-1-amine] and `COC(=O)c1ccc(-c2nnc(Nc3cc(C(F)(F)F)cc(C(F)(F)F)c3)c3ccccc23)c(C)c1` [Compound 64, methyl 4-(4-{[3,5-bis(trifluoromethyl)phenyl]amino}phthalazin-1-yl)-3-methylbenzoate] fall in the same range of IC50: 500 to 1000 nM for the first, 500 to 1000 nM for the second.
